Experimental data reported in patent US20260191864A1, “Uses of Hydroimidazopyridopyrimidinone Derivatives for Managing Aneurysms or Other Vascular Conditions or Diseases” (Emory University, priority 2022, published 2026).

What was measured:
vascular smooth muscle = vascular smooth muscle differentiation in vivo (ACTA2 smooth muscle actin staining); details: mice, ACTA2 staining (FIG. 1D)
aortic aneurysms = details: mice; aortic diameter at day 14 vs baseline (FIGS. 1A-1C)
Source text: It is contemplated that VSMC phenotypic modulation is responsible for foam cell formation during atherosclerosis.
Data represents percentage of maximal aortic dilation on day 14 of each animal. The recording and subsequent analysis were blinded to the assignment of the treatment regimen.
Images were quantified using ImageJ plus/color deconvolution plugin.

Q: How did the “vascular smooth muscle differentiation” value (vascular smooth muscle) turn out when `Cc1ccccc1CN1C(=O)C2=C(CCN(Cc3ccccc3)C2)N2CCN=C12` [ONC201, 7-benzyl-4-(2-methylbenzyl)-2,4,6,7,8,9-hexahydroimidazo[1,2-a]pyrido[3,4-e]pyrimidin-5 (1H)-one] was run?
A: Its value is “induces vascular smooth muscle differentiation in vivo”.

Q: What about the “formation of aortic aneurysms” value (aortic aneurysms) of the same molecule?
A: The value was “inhibits the formation of aortic aneurysms in mice”.
